# Test results taken from US5378813A, “Meso-2,5-dimercapto-N,N,N'N'-tetramethyladipamide” (President and Fellows of Harvard College, priority 1992, dated 1995).
# Like-named read-outs stand apart in the source and are kept apart here.
# What was measured:
# [1] = Equilibration of dl-DTA and meso-DTA (1H NMR); type: physicochemical; settings: 100 mM phosphate buffer, pD 7.0
# Protocol: dl-DTA^OX (2 mg in 0.5 mL of buffered D2 O (100 mM NaPO4, pD 7.0)) and meso-DTA (6 mg in 1.5 mL of buffered D2 O (100 mM NaPO4, pD 7.0)) were mixed in an NMR tube, and ^1 H NMR spectra were taken at various times. The value of Keq was calculated from the ^1 H NMR integrals.
# [2] = Reduction potential and equilibrium constant for reduction of ME^ox by the dithiol; type: physicochemical; settings: for K, equilibrium constant: reduction of ME^ox with the dithiol in water, pH 7.0, 100 mM phosphate buffer; for ε° (reduction potential): relative to mercaptoethanol (-0.209 V)
# Protocol: We used the equilibrium constant between meso-DTA and DTT to determine the values of ε° and K(ME) of meso-DTA.
# (§1) After 4 h, a ^1 H NMR spectrum was obtained.
# [3] = reference value to which all ε° are relative; cited from earlier work
# [4] = Kinetics of reduction of glutathione disulfide by 1H NMR spectroscopy; type: physicochemical; parameters: kapp^DTA: unit not given here; settings: pH 7.0, 298 K
# Protocol: (§2) The thiol-disulfide interchange reaction was quenched by addition of 25 μL of a DCl solution (12 wt % in D2 O) in one tube after 2 min, in another tube after 4 min, and in another tube after 6 min. The same series of experiments was carried out with the meso-DTA solution instead of the DTT solution. The second-order rate constant was calculated from the integrals of the ^1 H NMR spectra.
# [5] = molecular target: T1, creatine kinase-S-S-glutathione (Oryctolagus cuniculus, UniProt P00563); assay: Kinetics of reactivation of creatine kinase-S-S-glutathione; type: biochemical; parameters: kapp^DTA: unit not given here
# T1 construct: purchased Sigma
# T1 sequence (P00563 2-381 limits assumed): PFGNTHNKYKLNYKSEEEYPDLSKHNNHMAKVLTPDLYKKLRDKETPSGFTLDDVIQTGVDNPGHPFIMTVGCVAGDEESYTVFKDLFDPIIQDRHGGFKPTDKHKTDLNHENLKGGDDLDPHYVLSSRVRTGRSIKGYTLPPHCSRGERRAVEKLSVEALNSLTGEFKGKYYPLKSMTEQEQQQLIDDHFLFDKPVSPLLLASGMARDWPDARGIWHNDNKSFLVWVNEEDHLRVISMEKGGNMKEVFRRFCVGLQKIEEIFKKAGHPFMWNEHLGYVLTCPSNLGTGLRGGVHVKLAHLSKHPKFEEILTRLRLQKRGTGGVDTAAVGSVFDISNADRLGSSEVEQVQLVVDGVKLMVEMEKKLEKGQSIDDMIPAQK
# Description: (§3) In papain and creatine kinase, the disulfide being reduced is derived from an essential active site cysteine, (Smith et al., Biochemistry 1975, 14, 766-771) and the rate measured is the rate of reactivation of the modified protein. (Shaked et al., Biochemistry 1980, 19, 4156-4166.) DNase is deactivated by the reduction of an internal disulfide. (Shaked et al., Biochemistry 1980, 19, 4156-4166; and Price et al., J. Biol. Chem. 1969, 244, 929-932.)
# The solution of creatine kinase S-S-glutathione (the procedure was analogous to that of Walters and Gilbert, J. Biol. Chem. 1986, 261, 15372-15377) (10 μL) was diluted with deoxygenated aqueous buffer (pH 7.0, 0.1M imidazole, 2 mM EDTA, 2.5 mL). The diluted solution was added to two flasks (1.0 mL each). […] At various times, a 50-μL aliquot was withdrawn and added to an assay solution (950 μL, pH 6.0, 0.1M imidazole, 2 mM EDTA, 10 mM MgCl2, 2 mM ADP, 20 mM d-glucose, 2 mM NADP, 30 mM phosphocreatine, hexokinase (50 units/mL), glucose-6-phosphate dehydrogenase (35 units/mL)). The rate of increase in absorbance at 340 nm was recorded. (Gerhardt, Methods of Enzymatic Analysis, 3rd ed.; Bergmeyer, Ed.; Verlag Chemie: Weinheim, 1983; Vol. III, pp. 508-524.)
# [6] = molecular target: T2, DNase (Bos taurus, UniProt P00639); assay: Rate of reduction (deactivation) of DNase; type: biochemical; parameters: kapp^DTA: unit not given here
# T2 construct: purchased Sigma
# T2 sequence (P00639 23-282): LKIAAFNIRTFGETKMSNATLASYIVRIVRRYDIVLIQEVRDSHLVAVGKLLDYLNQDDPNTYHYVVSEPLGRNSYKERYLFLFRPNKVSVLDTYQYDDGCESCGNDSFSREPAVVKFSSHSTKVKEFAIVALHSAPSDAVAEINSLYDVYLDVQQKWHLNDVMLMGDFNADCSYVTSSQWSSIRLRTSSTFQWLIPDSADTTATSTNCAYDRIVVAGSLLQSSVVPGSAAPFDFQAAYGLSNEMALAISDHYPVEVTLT
# Description: as §3
# [7] = Kinetics of reduction of mercaptoethanol disulfide by 1H NMR spectroscopy; type: physicochemical; parameters: kapp^DTA / kapp, apparent rate constant: unit not given here; settings: for kapp, apparent rate constant: reduction of mercaptoethanol disulfide (ME^ox), pH 7.0, aqueous phosphate buffer (50 mM)
# Protocol: as §2
# [8] = Determination of pKa (absorbance at 238 nm against pH); type: physicochemical; settings: for pKa: aqueous buffers; for fraction existing as the thiolate: pH 7.0
# Protocol: The absorbance at 238 nm of meso-DTA (100 μL of an 8 mM ethanolic solution of meso-DTA) in various aqueous buffers (3 mL, 50 mM: 2,2-dimethylsuccinate, pH 6.0, 6.4, 6.8; Tris, pH 7.0, 7.3, 7.7, 8.0, 8.3, 8.7; glycine, pH 9.0, 9.5, 10.0) was plotted against pH. This curve was then compared with plots derived from theory.
# [9] = molecular target: T3, papain-S-S-Me (Carica papaya, UniProt P00784); assay: Kinetics of reactivation of papain-S-S-Me; type: biochemical; parameters: kapp^DTA: unit not given here
# T3 construct: purchased Boehringer Mannheim
# T3 sequence (P00784 134-345): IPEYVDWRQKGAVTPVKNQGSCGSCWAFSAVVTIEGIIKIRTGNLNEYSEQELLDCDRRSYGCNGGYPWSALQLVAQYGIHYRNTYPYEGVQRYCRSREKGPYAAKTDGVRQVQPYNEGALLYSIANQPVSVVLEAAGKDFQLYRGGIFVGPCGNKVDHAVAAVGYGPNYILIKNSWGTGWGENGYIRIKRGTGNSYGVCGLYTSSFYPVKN
# Protocol: as §3
# The papain-S-S-Me was prepared as described by Shaked et al., Biochemistry 1980, 19, 4156-4166. […] Chem. 1991, 56, 2332-2337.
# [10] = Relative rate of reduction of disulfides, meso-DTA compared with DTT (summary and calculation); type: physicochemical; settings: pH 7.0
# Description: as §3
# The difference between the calculated and the actual value for proteins could be due to steric interactions, because meso-DTA is a secondary thiol and DTT is a primary thiol. The difference in rates could also be due to the relative difference in hydrophobicities of the two compounds.
# [11] = Solubility in phosphate buffer; type: physicochemical; settings: reduced (dithiol) form, phosphate buffer pH 7.0, 100 mM phosphate, 25° C
# Protocol: ^e The solubilities were determined in phosphate buffer (pH 7.0, 100
# [12] = Equilibrium experiment, meso-DTA with DTT^OX (1H NMR); type: physicochemical; settings: 50 mM phosphate buffer, pD 7.0
# Protocol: as §1
# [13] = DMH data from Singh and Whitesides 1991
# [14] = rate of reactivation, aqueous solution, pH 7.0, 298 K
# [15] = reduction of an internal disulfide, aqueous solution, pH 7.0, 298 K
# [16] = aqueous buffer, read-out: solubility
structure (smiles),measurement,setting,value
CN(C)C(=O)[C@H](S)CC[C@@H](S)C(=O)N(C)C (relative stereo) [dl-DTA],factor by which more reducing than meso-DTA,[1],10
same,"K, equilibrium constant",[2],10^4 M
same,ε° (reduction potential),[2],-0.328 V
"OCCS [ME, Mercaptoethanol]",ε° of the reference mercaptoethanol,[3],-0.209 V
"CN(C)C(=O)[C@H](S)CC[C@H](S)C(=O)N(C)C [meso-DTA, meso-2,5-Dimercapto-N,N,N',N'-tetramethyladipamide]",kapp^DTA / kapp^DTT,[4]; glutathione disulfide,5.5
same,kapp^DTA,"[4]; reduction of glutathione disulfide, aqueous solution",0.31
same,kapp^DTA / kapp^DMH,[5]; [13],0.5
same,kapp^DTA / kapp^DTT,"[5]; pH 7.0, 298 K",3.4
same,kapp^DTA,[5]; [14],78
same,kapp^DTA / kapp^DMH,[6]; [13],0.4
same,kapp^DTA / kapp^DTT,"[6]; pH 7.0, 298 K",1.8
same,kapp^DTA,[6]; [15],0.34
same,kapp^DTA / kapp^DTT,"[7]; mercaptoethanol disulfide, pH 7.0, 298 K",7.7
same,kapp^DTA / kapp^DMH,"[7]; mercaptoethanol disulfide, DMH data from Singh and Whitesides 1991",1.1
same,"kapp, apparent rate constant",[7],0.50
same,kapp^DTA,"[7]; reduction of mercaptoethanol disulfide, aqueous solution, pH 7.0, 298 K",0.50
same,pKa,[8]; read-out: pKa (first thiol),7.8 ± 0.2
same,pKa,[8]; read-out: pKa (second thiol),8.9 ± 0.2
same,fraction existing as the thiolate,[8],approximately 15%
same,kapp^DTA / kapp^DMH,[9]; [13],0.15
same,kapp^DTA / kapp^DTT,"[9]; pH 7.0, 298 K",4.5
same,kapp^DTA,[9]; [14],260
same,times faster reduction of disulfide bonds than DTT,[10]; aqueous solution,up to 8 times
same,"relative rate of reduction compared with DTT, disulfide bond in proteins",[10]; water,2-5 times
same,solubility,[11]; [16],80 mM
same,Keq = [meso-DTA^OX][DTT]/[meso-DTA][DTT^OX],[12],0.010
same,Keq = [meso-DTA^OX][dl-DTA]/[meso-DTA][dl-DTA^OX],[1],0.10
same,factor by which the equilibrium constant for reduction of ME^OX is less than that of DTT,[2],10^2
same,less reducing than DTT by,[2],approximately 56 mV
same,"K, equilibrium constant",[2],10^3 M
same,ε° (reduction potential),[2],-0.300 V
"CN(C(=O)CS)N(C)C(=O)CS [DMH, N,N'-dimethyl-N,N'-bis(mercaptoacetyl) hydrazine, reference compound]","kapp, apparent rate constant",[7],0.52
same,pKa,[8]; read-out: pKa (first thiol),7.6
same,pKa,[8]; read-out: pKa (second thiol),8.9
same,solubility,[11]; [16],250 mM
same,"K, equilibrium constant",[2],10^3 M
same,ε° (reduction potential),[2],-0.300 V
"O[C@H](CS)[C@H](O)CS (racemic) [DTT, dithiothreitol, reference compound]",kapp^DTT,[6]; [15],0.19 M^1 g^-1
same,fraction existing as the thiolate,[8],about 1%
same,solubility,[11],high
same,"K, equilibrium constant",[2],10^5 M
same,ε° (reduction potential),[2],-0.356 V
